Source: patent US10081634B2, “Heterocyclic compound” (Daewoong Pharmaceutical Co., Ltd., priority 2014, dated 2018)

Assays:
[1] = biological target: T1, PRS (prolyl-tRNA synthetase) (Homo sapiens, UniProt P07814); assay: In vitro PRS enzyme activity inhibition experiment ([3H]proline, liquid scintillation); type: biochemical; conditions: purified PRS protein subcloned from EPRS cDNA; 37° C., 5 to 10 minutes; read-out: PRS IC50
T1 construct: the portion corresponding to PRS in cDNA of EPRS was subcloned; made in house
T1 sequence (P07814 1007-1512 limits assumed): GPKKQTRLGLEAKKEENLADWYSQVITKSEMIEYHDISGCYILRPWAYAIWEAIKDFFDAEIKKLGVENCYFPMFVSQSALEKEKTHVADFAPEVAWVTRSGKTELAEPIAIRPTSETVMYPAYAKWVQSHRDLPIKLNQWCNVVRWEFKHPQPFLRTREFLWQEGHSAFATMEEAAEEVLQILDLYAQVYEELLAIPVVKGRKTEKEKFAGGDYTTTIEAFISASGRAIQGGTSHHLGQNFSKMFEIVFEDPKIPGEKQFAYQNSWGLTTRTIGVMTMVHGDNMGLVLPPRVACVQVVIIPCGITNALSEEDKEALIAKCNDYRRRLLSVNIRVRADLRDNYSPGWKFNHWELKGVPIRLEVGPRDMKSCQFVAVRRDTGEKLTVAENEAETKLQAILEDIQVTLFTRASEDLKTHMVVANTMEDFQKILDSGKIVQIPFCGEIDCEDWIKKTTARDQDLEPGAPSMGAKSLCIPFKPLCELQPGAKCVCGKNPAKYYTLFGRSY
Procedure, shortened: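 Purified human PRS domain subcloned from EPRS cDNA, reacted at 37 °C for 5–10 min in 20 mM KPO4 pH 7.4, 6 mM MgAc, 5 mM ATP, tRNA, 0.5 mM DTT and [3H]proline. Compounds tested at 1 μM. Aminoacylation read on TCA-treated filter paper by liquid scintillation, giving % inhibition or IC50.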

[2] = system: NCI-H460 cells; assay: Cancer cell growth inhibition experiment (MTT assay); type: cell-based; conditions: Homo sapiens; NCI-H460 lung cancer cell line; 48 hours treatment; MTT cell viability
Protocol: NCI-H460 cells, lung cancer cell lines, were cultured in 5% CO2, 37° C. incubator using a flask for 75 cm^2 tissue culture. 96-well plates were used for the evaluation. These were prepared by differently applying at concentrations in the range of 6,000 to 12,000 cells/well according to the growth rate of the cell lines. The medium containing 5% FBS were dispensed in 200 μL/well and used. The medium were cultured for 24 hours. After confirming the cell status and dispensing form of a 96-well plate under a microscope, they were used for subsequent experiments. The compounds were evaluated at concentrations of 100, 30, 10, 3, 1, 0.3, 0.03, 0.01 μM. After removing the existing medium, the compounds with various concentrations were treated in an amount of 200 μL/well. The compounds-treated plates were further cultured for 48 hours, and the cell viabilities were measured by MTT assay to calculate IC50 values.
% Inhibition and IC50 values of the respective compounds were calculated and analyzed using Sigma Plot 8.0. The case where the derived IC50 is 5 μM or less is represented by “A”, the case where the IC50 is 5 to 30 μM is represented by “B”, and the case where the IC50 is 30 μM or higher is represented by “C”.

## O=C(C[C@H]1NCCC[C@@H]1O)Cn1c(CO)nc2ccc(C(F)(F)F)cc21 [Example 59, 1-(2-(hydroxymethyl)-6-(trifluoromethyl)-1H-benzo[d]imidazol-1-yl)-3-((2R,3S)-3-hydroxypiperidin-2-yl)propan-2-one]
[1]
  IC50: < 0.1 µM
[2]
  IC50: 5 to 30 µM

## Cc1c(Cl)ccc2c1ncn2CC(=O)C[C@H]1NCCC[C@@H]1O [Example 14, 1-(5-chloro-4-methyl-1H-benzo[d]imidazol-1-yl)-3-((2R,3S)-3-hydroxypiperidin-2-yl)propan-2-one]
[1]
  IC50: < 0.1 µM
[2]
  IC50: ≤ 5 µM

## O=C(C[C@H]1NCCC[C@@H]1O)Cn1cnc2c(C(F)(F)F)c(F)ccc21 [Example 17, 1-(5-fluoro-4-(trifluoromethyl)-1H-benzo[d]imidazol-1-yl)-3-((2R,3S)-3-hydroxypiperidin-2-yl)propan-2-one]
[1]
  IC50: < 0.1 µM
[2]
  IC50: 5 to 30 µM

## O=C(C[C@H]1NCCC[C@@H]1O)Cn1cnc2ccc(Cl)cc21 [Example 3, 1-(6-chloro-1H-benzo[d]imidazol-1-yl)-3-((2R,3S)-3-hydroxypiperidin-2-yl)propan-2-one]
[1]
  IC50: < 0.1 µM
[2]
  IC50: 5 to 30 µM

## O=C(C[C@H]1NCCC[C@@H]1O)Cn1cnc2c(F)c(Br)ccc21 [Example 20, 1-(5-bromo-4-fluoro-1H-benzo[d]imidazol-1-yl)-3-((2R,3S)-3-hydroxypiperidin-2-yl)propan-2-one]
[1]
  IC50: < 0.1 µM
[2]
  IC50: ≤ 5 µM

## O=C(C[C@H]1NCCC[C@@H]1O)Cn1cnc2cnc(Cl)cc21 [Example 32, 1-(6-chloro-1H-imidazo[4,5-c]pyridin-1-yl)-3-((2R,3S)-3-hydroxypiperidin-2-yl)propan-2-one]
[1]
  IC50: 0.1 to 0.5 µM
[2]
  IC50: ≥ 30 µM

## CC(O)(C[C@H]1NCCC[C@@H]1O)Cn1cnc2ccccc21 (stereo partly drawn) [Example 80, (2R,3S)-2-(3-(1H-benzo[d]imidazol-1-yl)-2-hydroxy-2-methylpropyl)piperidin-3-ol]
[1]
  IC50: > 0.5 µM
[2]
  IC50: ≥ 30 µM

## CC(O)(C[C@H]1NCCC[C@@H]1O)Cn1cnc2cc(Cl)c(Cl)cc21 (stereo partly drawn) [Example 84, (2R,3S)-2-(3-(5,6-dichloro-1H-benzo[d]imidazol-1-yl)-2-hydroxy-2-methylpropyl)piperidin-3-ol]
[1]
  IC50: > 0.5 µM
[2]
  IC50: ≥ 30 µM

## O=C(C[C@H]1NCCC[C@@H]1O)Cn1ccc2ncc(Br)cc21 [Example 94, 1-(6-bromo-1H-pyrrolo[3,2-b]pyridin-1-yl)-3-((2R,3S)-3-hydroxypiperidin-2-yl)propan-2-one]
[1]
  IC50: > 0.5 µM
[2]
  IC50: ≥ 30 µM

## Cc1c(F)ccc2c1ncn2CC(=O)C[C@H]1NCCC[C@@H]1O [Example 13, 1-(5-fluoro-4-methyl-1H-benzo[d]imidazol-1-yl)-3-((2R,3S)-3-hydroxypiperidin-2-yl)propan-2-one]
[1]
  IC50: < 0.1 µM
[2]
  IC50: ≤ 5 µM

## COC(C[C@H]1NCCC[C@@H]1O)Cn1cnc2cc(Cl)c(Cl)cc21 (stereo partly drawn) [Example 83, (2R,3S)-2-(3-(5,6-dichloro-1H-benzo[d]imidazol-1-yl)-2-methoxypropyl)piperidin-3-ol]
[1]
  IC50: > 0.5 µM
[2]
  IC50: ≥ 30 µM

## OC(C[C@H]1NCCC[C@@H]1O)Cn1cnc2ccccc21 (stereo partly drawn) [Example 69, (2R,3S)-2-(3-(1H-benzo[d]imidazol-1-yl)-2-hydroxypropyl)piperidin-3-ol]
[1]
  IC50: > 0.5 µM
[2]
  IC50: ≥ 30 µM

## O=C(C[C@H]1NCCC[C@@H]1O)Cn1c(CO)nc2cccc(OC(F)(F)F)c21 [Example 61, 1-(2-(hydroxymethyl)-7-(trifluoromethoxy)-1H-benzo[d]imidazol-1-yl)-3-((2R,3S)-3-hydroxypiperidin-2-yl)propan-2-one]
[1]
  IC50: > 0.5 µM
[2]
  IC50: ≥ 30 µM

## OC(C[C@H]1NCCC[C@@H]1O)Cn1cnc2cc(Cl)c(Cl)cc21 (stereo partly drawn) [Example 70, (2R,3S)-2-(3-(5,6-dichloro-1H-benzo[d]imidazol-1-yl)-2-hydroxypropyl)piperidin-3-ol]
[1]
  IC50: 0.1 to 0.5 µM
[2]
  IC50: 5 to 30 µM

## Cc1c(Cl)cnc2c1ncn2CC(=O)C[C@H]1NCCC[C@@H]1O [Example 39, 1-(6-chloro-7-methyl-3H-imidazo[4,5-b]pyridin-3-yl)-3-((2R,3S)-3-hydroxypiperidin-2-yl)propan-2-one]
[1]
  IC50: < 0.1 µM
[2]
  IC50: ≤ 5 µM

## O=C(C[C@@H]1CCCN1)Cn1cnc2cc(Cl)c(Cl)cc21 [Example 90, (S)-1-(5,6-dichloro-1H-benzo[d]imidazol-1-yl)-3-(pyrrolidin-2-yl)propan-2-one]
[1]
  IC50: > 0.5 µM
[2]
  IC50: ≥ 30 µM

## Cc1ccc2c(nc(CO)n2CC(=O)C[C@H]2NCCC[C@@H]2O)c1C [Example 62, 1-(2-(hydroxymethyl)-4,5-dimethyl-1H-benzo[d]imidazol-1-yl)-3-((2R,3S)-3-hydroxypiperidin-2-yl)propan-2-one]
[1]
  IC50: > 0.5 µM
[2]
  IC50: ≥ 30 µM

## O=C(C[C@H]1NCCC[C@@H]1O)Cn1cnc2cc(C(F)(F)F)ccc21 [Example 6, 1-((2R,3S)-3-hydroxypiperidin-2-yl)-3-(5-(trifluoromethyl)-1H-benzo[d]imidazol-1-yl)propan-2-one]
[1]
  IC50: 0.1 to 0.5 µM
[2]
  IC50: ≥ 30 µM

## O=C(C[C@H]1NCCC[C@@H]1O)Cn1cnc2ccccc21 [Example 1, 1-(1H-benzo[d]imidazol-1-yl)-3-((2R,3S)-3-hydroxypiperidin-2-yl)propan-2-one]
[1]
  IC50: > 0.5 µM
[2]
  IC50: ≥ 30 µM

## O=C(C[C@H]1NCCC[C@@H]1O)Cn1cnc2ccc(Br)nc21 [Example 35, 1-(5-bromo-3H-imidazo[4,5-b]pyridin-3-yl)-3-((2R,3S)-3-hydroxypiperidin-2-yl)propan-2-one]
[1]
  IC50: < 0.1 µM
[2]
  IC50: 5 to 30 µM

## O=C(C[C@H]1NCCC[C@@H]1O)Cn1c(CO)nc2cc(Cl)c(Cl)cc21 [Example 87, 1-(5,6-dichloro-2-(hydroxymethyl)-1H-benzo[d]imidazol-1-yl)-3-((2R,3S)-3-hydroxypiperidin-2-yl)propan-2-one]
[1]
  IC50: < 0.1 µM
[2]
  IC50: ≤ 5 µM

## O=C(C[C@H]1NCCC[C@@H]1O)Cn1ccc2ccnc(Cl)c21 [Example 93, 1-(7-chloro-1H-pyrrolo[2,3-c]pyridin-1-yl)-3-((2R,3S)-3-hydroxypiperidin-2-yl)propan-2-one]
[1]
  IC50: 0.1 to 0.5 µM
[2]
  IC50: ≥ 30 µM

## O=C(C[C@H]1NCCC[C@@H]1O)Cn1cnc2c(Cl)c(Br)ccc21 [Example 22, 1-(5-bromo-4-chloro-1H-benzo[d]imidazol-1-yl)-3-((2R,3S)-3-hydroxypiperidin-2-yl)propan-2-one]
[1]
  IC50: < 0.1 µM
[2]
  IC50: ≤ 5 µM

## O=C(C[C@H]1NCCC[C@@H]1O)Cn1cnc2ccc(C(F)(F)F)nc21 [Example 36, 1-((2R,3S)-3-hydroxypiperidin-2-yl)-3-(5-(trifluoromethyl)-3H-imidazo[4,5-b]pyridin-3-yl)propan-2-one]
[1]
  IC50: < 0.1 µM
[2]
  IC50: 5 to 30 µM

## O=C(C[C@H]1NCCC[C@@H]1O)Cn1c(C(F)(F)F)nc2cc(Cl)c(Cl)cc21 [Example 50, 1-(5,6-dichloro-2-(trifluoromethyl)-1H-benzo[d]imidazol-1-yl)-3-((2R,3S)-3-hydroxypiperidin-2-yl)propan-2-one]
[1]
  IC50: > 0.5 µM
[2]
  IC50: ≥ 30 µM

## O=C(C[C@H]1NCCC[C@@H]1O)Cn1cnc2cccc(C(F)(F)F)c21 [Example 8, 1-((2R,3S)-3-hydroxypiperidin-2-yl)-3-(7-(trifluoromethyl)-1H-benzo[d]imidazol-1-yl)propan-2-one]
[1]
  IC50: < 0.1 µM
[2]
  IC50: 5 to 30 µM

## O=C(C[C@H]1NCCC[C@@H]1O)Cn1cnc2cc(Br)ccc21 [Example 4, 1-(5-bromo-1H-benzo[d]imidazol-1-yl)-3-((2R,3S)-3-hydroxypiperidin-2-yl)propan-2-one]
[1]
  IC50: < 0.1 µM
[2]
  IC50: 5 to 30 µM

## O=C(C[C@H]1NCCC[C@@H]1O)Cn1nnc2ccc(Cl)cc21 [Example 100, 1-(6-chloro-1H-benzo[d][1,2,3]triazol-1-yl)-3-((2R,3S)-3-hydroxypiperidin-2-yl)propan-2-one]
[1]
  IC50: > 0.5 µM
[2]
  IC50: ≥ 30 µM
